Measured values as given in patent US10786445B2 (BIOGEN CHESAPEAKE LLC, priority 2010, dated 2020).
Values joined by “and” are separate entries in the source; they are usually repeats but may differ in a detail not shown here. Equal values may be shown once. Read-outs that look alike come from different tables or passages of the source. Marks after values point to notes of the source that are not given here.

What was measured:
[1] = Study 101 Phase 1: serum ALT and AST; type: in vivo, human; conditions: subject receiving 6 mg/day, treated with 4,309 calories over 24 hours, two thirds carbohydrates
[2] = Preclinical experiments: filtering concentrated reconstituted glyburide, dilution into PVC-free bag; type: physicochemical
Description: In these experiments, the filtered material was diluted into a PVC-free bag (for example, the B Braun EXCEL L8000).
Patients in need of glyburide treatment include patients suffering from stroke, such as acute stroke (ischemic and hemorrhagic), traumatic brain injury (TBI), spinal cord injury (SCI), myocardial infarction (MI), shock (including hemorrhagic shock), organ ischemia, ventricular arrhythmias, ischemic injury; hypoxia/ischemia; and other injuries, conditions, and disorders.

blood glucose = assay: Study 101 Phase 1: blood glucose / hypoglycemia; conditions: for Effect on median blood glucose levels: FIG. 5; for Time at which dosing was stopped early due to the hypoglycemic effect: planned 72 h infusion
Description: Blood glucose was measured throughout the study, both to obtain pharmacodynamic information as well as for safety reasons. The dosing regimen was a bolus over 2 minutes followed by a continuous infusion for 72 hours.

[3] = In-use stability testing of glyburide solutions (PVC contact, in-line filter, flushing protocols); type: physicochemical
Text: One possible explanation is that glyburide adsorbs to PVC.

[4] = cited from earlier work
[5] = Study 101 Phase 1: plasma glyburide pharmacokinetics, bolus plus 72 h continuous infusion of RP-1127; type: in vivo, human
Description: All plasma concentration data were analyzed by nonlinear regression, simultaneously incorporating drug behavior during and after the infusion.

[6] = Pharmacokinetics of glyburide after intravenous administration (published studies); type: in vivo, human
Text: All patents and publications discussed herein are hereby incorporated by reference in their entireties.

[7] = Jonsson et al. 2000, healthy males and females, data from Caucasian patients, N 10, i.v. dose 2.0 mg
[8] = McEwen et al. 1982, healthy males, N 20, i.v. dose 1.48 mg
[9] = Morrison et al. 1982, healthy males and females, N 8, i.v. dose 2.4 mg
[10] = Neugebauer et al. 1985, NIDDM males and females, N 20, i.v. dose 1.25 mg
[11] = Rogers et al. 1982, healthy males and females, N 8, i.v. dose 1 mg
[12] = Sorgel et al. 1997, healthy males, N 24, i.v. dose 1.5 mg
[13] = 0.4 mg/day, limit of detection 0.5 ng/mL
[14] = Study 101, 0.4 and 3.0 mg/day (N = 26), nonlinear regression
[15] = both sexes, human, in vivo, iv, Morrison et al. 1982, healthy males and females, N 8, i.v. dose 2.4 mg
[16] = both sexes, human, in vivo, iv, Neugebauer et al. 1985, NIDDM males and females, N 20, i.v. dose 1.25 mg
[17] = both sexes, human, in vivo, iv, Rydberg et al. 1995, healthy males and females, N 8, i.v. dose 1.0 mg, normalized to 70 kg
[18] = male, human, in vivo, iv, McEwen et al. 1982, healthy males, N 20, i.v. dose 1.48 mg

blood glucose levels (blood glucose; 433 μg bolus plus 10 mg/day, single subject, H12-H22): 52 to 53 mg/dL
BG (blood glucose; 433 μg bolus plus 10 mg/day, single subject, hour 2): below 70 mg/dL
morning serum glucose (blood glucose; 433 μg bolus plus 10 mg/day, single subject, hour 22): below 50 mg/dL
Hypoglycemia (blood glucose; 6 mg/day delivered as continuous infusion): severe hypoglycemia occurred
Time at which dosing was stopped early due to the hypoglycemic effect (blood glucose; 6 mg/day): around 32 hours
blood glucose levels (blood glucose; 6 mg/day, single subject, H0 to H8): above 70 mg/dL
blood glucose (blood glucose; 6 mg/day, single subject, after IV dextrose (10%) 100 cc/hour from approximately H29): 64 to 123 mg/dL
BG (blood glucose; 6 mg/day, single subject, at H12): 68 mg/dL
Hypoglycemia (blood glucose; 10 mg/day delivered as continuous infusion): severe hypoglycemia occurred
Time at which dosing was stopped early due to the hypoglycemic effect (blood glucose; 10 mg/day): around 24 hours
loss of glyburide in standard PVC bag ([3]; 10 μg/mL glyburide, PVC bag but not PVC tubing): acceptable amount of loss of glyburide
glyburide concentration after passage through a filter ([3]; 0.2 micron in-line filter): reduced
reduction in glyburide passing through the full chain of components ([3]; all components and flushing protocols): less than 10%
glyburide concentration on storage in PVC bags ([3]; glyburide concentrations below 10 μg/mL): reduced
glyburide concentration on contact with polyvinyl chloride (PVC) ([3]; solution passed through PVC tubing or stored in a PVC bag): reduced
mean steady state glyburide concentration (Css) ([5]; 17.3 μg bolus plus 0.4 mg/day, 72 h infusion): 3.8 ng/mL
mean Css ([5]; 130 μg bolus plus 3 mg/day, 72 h infusion): 25.3 ng/mL
Mean glyburide plasma level at treatment cessation ([5]; 0.4 mg/day): 4.4 ng/mL
Reduction of mean glyburide plasma levels within one hour of treatment cessation ([5]; 0.4 mg/day): 54%
Hour by which plasma levels were below the limits of detection in 50% of the patients [5, 13]: ≤ 76 h
Hour by which plasma levels were below the limits of detection in 100% of patients [5, 13]: ≤ 96 h
Hour by which plasma levels were below the limits of detection in 50% of the subjects ([5]; 3 mg/day): ≤ 84 h
Hour by which plasma levels were below the limits of detection in 100% of patients ([5]; 3 mg/day): ≤ 96 h
Mean glyburide plasma level at cessation of dosing ([5]; 3 mg/day): 27.3 ng/mL
Reduction of mean glyburide plasma levels within 1 hour of cessation of dosing ([5]; 3 mg/day): 57%
clearance ([5]; Study 101, 0.4 and 3.0 mg/day (N = 26)): 54 mL/min/m^2
T1/2α [5, 14]: 0.44 h
T1/2β [5, 14]: 3.31 h
Time to steady state following bolus administration ([5]; Study 101, bolus plus continuous infusion): 8 to 20 h
Time of minimum plasma glyburide concentration after commencement of dosing (median) ([5]; Study 101, drop following the initial bolus loading dose): 1.25 to 1.5 h
Cmax ([5]; both sexes, human, plasma, intravenous, 17.3 μg bolus plus 0.4 mg/day, 72 h infusion): 7.2 ng/mL
concentration at 1 h after treatment cessation ([5]; both sexes, human, plasma, intravenous, 0.4 mg/day): 2 ng/mL
concentration at 1 h after cessation of dosing ([5]; both sexes, human, plasma, intravenous, 3 mg/day): 11.9 ng/mL
clearance ([5]; both sexes, human, plasma, intravenous, Study 101, 0.4 and 3.0 mg/day (N = 26), read-out: Clearance): 95 mL/min and 1.44 mL/min/kg
Cmax ([5]; human, plasma, intravenous, 130 μg bolus plus 3 mg/day, 72 h infusion, one patient, read-out: Cmax (of all individual subjects)): 50.7 ng/mL
concentration at 2 h ([5]; human, plasma, intravenous, 433 μg bolus plus 10 mg/day, single subject, at hour 2 (BG below 70 mg/dL)): 57.9 ng/mL
concentration at 12 h ([5]; human, plasma, intravenous, 6 mg/day, single subject, at H12 (BG 68 mg/dL)): 64 ng/mL
Beta ([6]; Rydberg et al. 1995, healthy males and females, N 8, i.v. dose 1.0 mg, normalized to 70 kg): 0.52*‡ 1/h
clearance [6, 15]: 73.7 mL/min
half-life [6, 15]: 1.18 h
Vd [6, 16]: 11.6 L
clearance [6, 16]: 73.5 mL/min
Vd [6, 17]: 10.9 L
clearance [6, 17]: 91 mL/min
clearance ([6]; both sexes, human, plasma, iv, Jonsson et al. 2000, healthy males and females, data from Caucasian patients, N 10, i.v. dose 2.0 mg): 28 mL/min
Vd [6, 18]: 9.7 L
clearance [6, 18]: 48.7 mL/min
SMILES: COc1ccc(Cl)cc1C(=O)NCCc1ccc(S(=O)(=O)NC(=O)NC2CCCCC2)cc1 [Glyburide, 5-chloro-N-(4-[N-(cyclohexylcarbamoyl)sulfamoyl]phenethyl)-2-methoxybenzamide]
ALT and AST [1]: transient elevations in ALT and AST
Effect of filtering on glyburide concentration ([2]; 0.2 micron filter, at least about 10 μg/mL, preferably about 0.5-1 mg/mL or greater): does not significantly decrease the glyburide concentration
Loss of glyburide from glyburide solutions ([2]; filter 1 mg/mL concentrate, dilute into PVC-free bag, unfiltered polyethylene lined tubing): effective to reduce the loss of glyburide
Effect on median blood glucose levels (blood glucose; 0.4 mg/day vs placebo): very minor but visible effect on BG
Symptoms of hypoglycemia (blood glucose; 433 μg bolus plus 10 mg/day, single subject): classic symptoms of hypoglycemia but was always alert, oriented and conversant
Effect on median blood glucose levels (blood glucose; 3.0 mg/day vs placebo): more pronounced effect, without hypoglycemia
Signs of hypoglycemia (blood glucose; 6 mg/day, single subject, approximately H13.3, lasted 15 minutes): signs of hypoglycemia in the form of sweating (diaphoresis) and hunger
mean glyburide Cmax after administration of the bolus ([4]; Groop et al. 1987, bolus dose followed by continuous i.v. infusion): 240 ng/mL
Cmax [4, 7]: 196 ng/mL
clearance [4, 7]: 101.3 mL/min
t1/2 [4, 7]: 1.15 h
Beta [4, 8]: 0.3 h⁻¹
clearance [4, 8]: 49 mL/min
t1/2 [4, 8]: 2.46 h
Beta [4, 9]: 0.62 h⁻¹
Cmax [4, 9]: 648 ng/mL
Vd [4, 9]: 7.4 L
clearance [4, 9]: 73.7 mL/min
Beta [4, 10]: 0.38 h⁻¹
Cmax [4, 10]: 376 ng/mL
clearance [4, 10]: 73.5 mL/min
t1/2 [4, 10]: 1.82 h
Beta [4, 11]: 0.517 h⁻¹
t1/2 [4, 11]: 1.47 h
t1/2 ([4]; Rydberg et al. 1995, healthy males and females, N 8, i.v. dose 1.0 mg): 1.47 ± 0.42 h
Cmax [4, 12]: 331 ± 65 ng/mL
Tmax [4, 12]: 5.4 min
Vd [4, 12]: 11.22 ± 3 L
clearance [4, 12]: 74.7 ± 22 mL/min
t1/2 [4, 12]: 4.22 ± 1 h
t1/2 ([4]; Spraul et al. 1989, healthy males and females, N 52, i.v. dose 4.0 mg): 1.50 ± 0.36 h
Maximum glyburide plasma concentrations ([4]; range over studies: Rogers et al. 1982, Groop et al. 1987, Bank et al. 2000, Jonsson et al. 2000): 200 to 436 ng/mL
Dependence of pharmacokinetic parameters on covariates ([5]; Study 101): independent of dose, weight, height, body surface area, gender and age
